According to patent publication US20230338363A1, “COMBINATION CHEMO-IMMUNOTHERAPY FOR PANCREATIC CANCER USING THE IMMUNOGENIC EFFECTS OF AN IRINOTECAN SILICASOME NANOCARRIER PLUS ANTI-PD-1” (The Regents of the University of California, priority 2020, published 2023):

Key:
PDAC = settings: resected PDAC patients; p < 0.01; cited from earlier work
KPC cells [1] = test: Autophagy (LC3B, p62) and PD-L1 expression by IF staining and immunoblotting; type: cell-based, mouse; settings: IRIN 300 µM or OX 500 µM, 24 h
Procedure: KPC cells were seeded in the µ-Slide 8 well. After cell attachment, the cells were treated by IRIN at 300 µM for 24 h. Control treatments included exposure to PBS, chloroquine (32 µM), rapamycin (100 nM) and IFN-γ (10 ng/ml). Before IF staining, the cells were washed with PBS and fixed with 4% paraformaldehyde at RT for 15 minutes. Cells were treated in 1% BSA (blocking reagent) plus 0.2% triton-X100 in PBS for 30 minutes. Subsequently, the cells were incubated with primary antibody that recognizes LC3B (Cell Signaling #2775, 1:200) or p62/SQSTM1 (Cell Signaling #23214, 1:800) in 1% BSA containing PBS solution at 4° C. overnight. The sample was washed twice in PBS and further stained using an Alexa Fluor® 488 conjugated goat anti-rabbit secondary antibody (Thermo Fisher, A-11008, 1:1000) and 5 µg/mL Hoechst 33342 dye for 1 h. Cell surface staining for PD-L1 assessment was carried out in fixed (4% paraformaldehyde) cells, using a staining process similar to the above protocol. Primary PD-L1 antibody (Abcam, ab213480, 1: 500) and Alexa Fluor® 594 conjugated goat anti-rabbit secondary antibody (Thermo Fisher, A-11012, 1:1000) were used. The cells were visualized using a Leica SP8-MD confocal microscope under the 100x objective lens.
To confirm the confocal staining results for LC3B, p62 and PD-L1, western blotting experiments were performed in KPC cells exposed to IRIN (300 µM) or OX (500 µM) for 24 hr. Another experiment also looked at the dose-dependent effect of IRIN at concentrations of 75, 150, 300 and 600 µM for 24 h. Briefly, ~2×10^5 KPC cells per well were seeded in 6 well-plates. After drug exposure, KPC cells were harvested and treated with cold RIPA lysis buffer (Cell Signaling # 9806S), supplemented with a cocktail of protease and phosphatase inhibitors (Cell Signaling #5872) and incubated on ice for 30 mins. After centrifugation of the lysates at 12,000 rpm for 10 min, protein concentration was quantified by a Bradford assay (Biorad). Equal amounts of protein in the supernatants were loaded onto a 10-20% Tris-glycine SDS-PAGE gel (Invitrogen, Grand Island, NY). The proteins were subsequently transferred to a PVDF membrane. The membrane was blocked with 5% non-fat dry milk/TBST, before incubation with primary and HRP-conjugated secondary antibodies. The primary antibodies included: LC3B (Cell Signaling #2775), p62/SQSTM1 (Cell Signaling #5114), NF-κB p65 (Cell Signaling #8242), Phospho-NF-xB p65 (Cell Signaling #3033) and PD-L1 (Abcam, ab213480). The blots were developed by soaking in ECL substrate (Thermo Fisher Scientific). Densitometric analysis of each protein band on the film was quantified by ImageJ software and normalized to the intensity of a corresponding housekeeping protein.
(§1) The of the IRIN silicasome on lysosomal alkalization was performed at drug concentrations of 75 µM and 300 µM in KPC cells. Empty silicasomes (in which a 500 µg/mL particle dose is representative of an encapsulated IRIN dose of 300 µM) was included as control. The assessment of LC3B, p62 and PD-L1 immunoblotting and IF staining were performed in KPC cells during treatment with the IRIN silicasome or empty silicasomes, as described for the free drug.

KPC tumor = test: Vaccination experiment with dying chemo-treated KPC cells; type: in vivo, mouse
Procedure: The vaccination schedule is highlighted in FIG. 2, panel C. Eight million KPC cells were seeded in a tissue culture dish. After cellular attachment, IRIN (300 µM or OX (500 µM were added for 24 h. Cells were collected and washed before resuspended in 0.8 mL cold PBS. For vaccination, each mouse received subcutaneous (SC) injection of a 100 µL suspension of chemo-treated cells in the right flank. Control animals received SC injection with 0.1 mL PBS. The vaccination was repeated after 7 days. Fourteen days after the 1st injection, the animals received SC injection of normal KPC cells (1 million cells in 0.1 mL PBS) in the contralateral (left) flank. Tumor growth was measured by a digital caliper every 2-3 days, and the tumor volume calculated according to the formula: length × width^2 /2. Animals were sacrificed on day 26 and the tumors were collected, weighed and fixed in 10% formalin, followed by paraffin embedding and sectioning to derive to 4 µm thick slices for IHC analysis. Primary antibodies to CD8 (#14-0808-82) and FoxP3 (#13-5773-82) were purchased from ThermoFisher. IHC staining was performed in the UCLA Translational Pathology Core Laboratory (TPCL). The slides were scanned and images assessed by using Aperio ImageScope software (Leica).

KPC cells [2] = test: Lysosomal alkalization, LysoTracker Red DND 99 confocal microscopy; type: cell-based, mouse; settings: CQ 32 µM, 24 h
Procedure: Approximately 1.5×10^4 KPC cells were seeded in µ-Slide 8 well (ibidi, 80826). To reveal the intracellular distribution of IRIN, attached KPC cells were treated with IRIN (300 µM) for 24 h. Cell membranes were stained using an Alexa Fluor® 594 conjugated WGA dye (Invitrogen™, W11262) at 2 µg/mL for 10 minutes. After washing, the cells were visualized using a Leica SP8-MD confocal microscope under the 100× objective lens. The excitation and emission wavelengths for IRIN were 405 nm and 440~490 nm, respectively^[51]
IRIN-treated KPC cells were washed and replenished with fresh media containing 100 nM DND-99 dye and 5 µg/mL Hoechst 33342 for nuclear staining. The cells were incubated at 37° C. for 0.5 h, followed by washing with phenol red free media. The cells were then visualized using a Leica SP8-MD confocal microscope under the 100× objective lens.
as §1

Nc1ccn([C@@H]2O[C@H](CO)[C@@H](O)C2(F)F)c(=O)n1 [GEM, gemcitabine]
median overall survival (PDAC): 35.0 months

O=C1[O][Pt]2([NH][C@@H]3CCCC[C@H]3[NH]2)[O]C1=O [oxaliplatin]
PD-L1 expression (KPC cells [1]): failed to upregulate PD-L1 expression | autophagy flux (Western blotting of LC3 and p62) (KPC cells [1]): induced autophagy | growth of tumor on the opposite flank vs PBS control (KPC tumor; KPC cells treated with 300 µM IRIN or 500 µM OX, p <0.05): improved the shrinkage of the tumor on the opposite flank significantly | CD8+ staining number (IHC) (KPC tumor; harvested tumors, day 26): slight increase | CD8+/Treg cells ratio (IHC) (KPC tumor; harvested tumors, day 26): significantly (p <0.01) increased

chloroquine diphosphate salt
alkalizing effect on lysosomal pH (KPC cells [2]): alkalizing effect of IRIN was duplicated
